Columns and labels:
[1] = target: T1, KCNQ4 (Homo sapiens, UniProt P56696); assay: Two-electrode voltage clamp of KCNQ4 currents in Xenopus oocytes; format: cell-based
T1 construct: A complete cDNA was assembled and cloned into the oocyte expression vector PTLN; expressed in transfected cells; host or cells: Xenopus oocytes injected with capped cRNA from the PTLN vector
T1 sequence (P56696 1-695): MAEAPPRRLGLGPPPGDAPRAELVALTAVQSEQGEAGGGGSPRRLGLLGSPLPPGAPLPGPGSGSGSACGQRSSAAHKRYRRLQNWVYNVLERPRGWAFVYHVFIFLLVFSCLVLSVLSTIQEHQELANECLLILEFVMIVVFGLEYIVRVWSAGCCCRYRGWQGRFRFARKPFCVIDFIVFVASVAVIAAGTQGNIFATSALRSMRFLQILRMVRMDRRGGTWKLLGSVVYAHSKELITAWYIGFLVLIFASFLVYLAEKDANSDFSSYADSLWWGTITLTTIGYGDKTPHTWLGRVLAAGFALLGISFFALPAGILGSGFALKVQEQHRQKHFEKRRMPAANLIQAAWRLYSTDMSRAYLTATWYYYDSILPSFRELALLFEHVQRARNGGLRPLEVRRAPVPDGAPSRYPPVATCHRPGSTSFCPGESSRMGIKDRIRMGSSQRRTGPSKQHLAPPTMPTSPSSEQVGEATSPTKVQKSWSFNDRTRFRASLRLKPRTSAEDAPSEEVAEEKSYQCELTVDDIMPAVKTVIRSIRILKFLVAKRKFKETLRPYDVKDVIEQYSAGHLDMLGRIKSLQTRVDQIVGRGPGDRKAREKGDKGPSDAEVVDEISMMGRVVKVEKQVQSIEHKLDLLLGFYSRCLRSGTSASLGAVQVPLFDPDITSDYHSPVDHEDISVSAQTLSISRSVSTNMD
Procedure: (§1) KCNQ4 was expressed in Xenopus oocytes and its activity was investigated by two-electrode voltage clamping.
(§2) After linearization of the KCNQ4-containing PTLN vector with Hpal, capped cRNA was transcribed in vitro using the mMessage mMachine cRNA synthesis kit (Ambion). Usually 5 - 15 ng of cRNA were injected into Xenopus oocytes previously isolated by manual defolliculation and short collagenase treatment. In co-expression experiments cRNAs were injected at a 1:1 ratio. Oocytes were kept at 17°C in modified Barth's solution (90 mM NaCl, 1 mM KCl, 0.41 mM CaCl2, 0.33 mM Ca(NO3)2, 0.82 mM MgSO4, 10 mM HEPES, 100 U penicillin-100 µg streptomycin/ml, pH 7.6).
(§3) Standard two-electrode voltage-clamp measurements were performed at room temperature 2-4 days after injection using a Turbotec 05 amplifier (npi instruments, Tamm, Germany) and pClamp 5.5 software (Axon Instruments). Currents were usually recorded in ND98 solution (see Table 2). Solutions for Na^+ / K^+ replacement experiments were prepared from an appropriate mixture of solution KD100 (100 mM KCl) and ND100 (100 mM NaCl) to yield the stated concentrations of Na^+ and K^+. Linopirdine (RBI, Natick, MA) was prepared as a 100 mM stock solution in DMSO and added to a final concentration of 200 µM to ND98.

[2] = target: T2, KCNQ3/KCNQ4 (Homo sapiens, UniProt O43525+P56696); assay: Two-electrode voltage clamp of Xenopus oocytes co-injected with KCNQ3 and KCNQ4 cRNA; format: cell-based; conditions: 200 µM Linopirdine in ND98, currents measured at +40 mV, cRNAs 1:1
T2 construct: A complete cDNA was assembled and cloned into the oocyte expression vector PTLN; expressed in transfected cells; host or cells: Xenopus oocytes co-injected with KCNQ3 and KCNQ4 cRNA
T2 sequence (P56696 1-695): T1 sequence (P56696 1-695)
T2 sequence (O43525 1-872): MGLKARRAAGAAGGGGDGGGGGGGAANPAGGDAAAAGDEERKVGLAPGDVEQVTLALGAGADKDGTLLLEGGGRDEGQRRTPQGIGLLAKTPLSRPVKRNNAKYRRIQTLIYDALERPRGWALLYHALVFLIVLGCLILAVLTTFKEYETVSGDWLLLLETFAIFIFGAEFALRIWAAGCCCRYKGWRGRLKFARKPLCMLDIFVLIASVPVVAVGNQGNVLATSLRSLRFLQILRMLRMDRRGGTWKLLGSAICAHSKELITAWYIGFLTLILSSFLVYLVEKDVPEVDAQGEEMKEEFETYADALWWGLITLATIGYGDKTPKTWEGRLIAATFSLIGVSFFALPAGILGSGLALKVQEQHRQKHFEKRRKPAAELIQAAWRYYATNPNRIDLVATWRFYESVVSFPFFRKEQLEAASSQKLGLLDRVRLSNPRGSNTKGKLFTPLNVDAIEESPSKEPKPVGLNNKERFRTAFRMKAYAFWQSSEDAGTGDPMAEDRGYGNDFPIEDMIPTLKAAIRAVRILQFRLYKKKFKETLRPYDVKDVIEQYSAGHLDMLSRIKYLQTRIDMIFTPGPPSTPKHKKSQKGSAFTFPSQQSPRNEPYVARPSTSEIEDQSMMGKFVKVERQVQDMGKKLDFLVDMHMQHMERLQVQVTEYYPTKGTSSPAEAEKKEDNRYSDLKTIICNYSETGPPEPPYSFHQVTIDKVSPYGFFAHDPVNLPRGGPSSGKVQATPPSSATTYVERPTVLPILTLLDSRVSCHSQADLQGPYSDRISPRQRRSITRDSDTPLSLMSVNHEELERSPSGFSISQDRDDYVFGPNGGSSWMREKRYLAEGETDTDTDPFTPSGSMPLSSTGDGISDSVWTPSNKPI
Procedure: as §1, §2, §3

[3] = system: KCNQ2/KCNQ3 channels; conditions: concentration of 200 µM; cited from earlier work

SMILES: O=C1N(c2ccccc2)c2ccccc2C1(Cc1ccncc1)Cc1ccncc1 [Linopirdine, 1,3-dihydro-1-phenyl-3,3-bis(4-pyridylmethyl)-2H-indol-2-one]
- inhibition at 200 µM ([1]; 200 µM Linopirdine in ND98, currents measured at +40 mV, Xenopus oocytes): ~30%
- time until steady-state inhibition was reached, KCNQ4 currents ([1]; upon addition of 200 µM Linopirdine): ~ 1 min
- inhibition with KCNQ3/KCNQ4 co-expression [2]: ≈ 75%
- inhibition of KCNQ2/KCNQ3 channels [3]: nearly completely inhibits

From EP1147134B1, “NOVEL POTASSIUM CHANNELS AND GENES ENCODING THESE POTASSIUM CHANNELS” (NEUROSEARCH A/S, priority 1999, dated 2000)
